Assay results taken from patent publication US20240009201A1, “CYP11B2 BETA HYDROXYLASE INHIBITORS FOR HYPERTENSION” (MINERALYS THERAPEUTICS, INC., priority 2020, published 2024).
Where a name gives a salt, the structure may show the parent alone.

Legend:
Assay type in all cases: in vivo
[1] = biological target: T1, CYP11B2 (Mus musculus, UniProt P15539); assay: Radio-telemetry blood pressure in low renin hypertension animal model (Ay mice); settings: 3 mg/kg/day via mini-osmotic pump, 7 days, FIG. 14
T1 construct: from tissue; host or cells: living mice (endogenous enzyme); obese AY mice, Balb/C mice (Jackson Labs #000651)
T1 sequence (P15539 25-500): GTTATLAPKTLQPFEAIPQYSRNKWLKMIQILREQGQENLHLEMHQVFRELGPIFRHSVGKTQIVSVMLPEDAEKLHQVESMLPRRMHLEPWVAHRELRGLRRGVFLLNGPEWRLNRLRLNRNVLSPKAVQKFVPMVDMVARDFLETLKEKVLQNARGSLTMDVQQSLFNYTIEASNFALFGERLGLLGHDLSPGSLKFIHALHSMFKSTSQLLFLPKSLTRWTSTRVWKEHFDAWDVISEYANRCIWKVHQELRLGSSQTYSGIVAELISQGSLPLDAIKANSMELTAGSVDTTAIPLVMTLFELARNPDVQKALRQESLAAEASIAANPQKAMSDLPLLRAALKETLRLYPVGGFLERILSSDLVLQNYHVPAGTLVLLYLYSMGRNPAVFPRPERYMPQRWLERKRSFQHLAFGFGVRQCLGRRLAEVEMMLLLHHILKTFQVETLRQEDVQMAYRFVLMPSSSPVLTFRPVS
Procedure: Purpose: To determine whether CYP11B2 blockade (via aldosterone synthase inhibition) improves cardiovascular function in an animal model for low renin hypertension.
Animal Model: All experiments were conducted in 12-16-week-old obese AY female mice.
Telemetry Protocol: The telemetry protocol is illustrated in FIG. 13.
Treatment Protocol: Male and female Balb/C mice (Jackson Labs, Bar Harbor, ME, Catalog #000651) at 10 weeks of age were utilized for all studies. Mice were implanted with indwelling telemeters (carotid catheter) (DSI© Model #PA-C10, New Brighton, MN) under isoflurane anesthesia as previously described. Following a 7-day recovery period baseline BP measurements were consciously recorded for 7 days while mice were on normal salt diet (NS) (0.2% NaCl, Teklad #2918, Envigo, United Kingdom). Mice were then treated with the test article (compound of formula (A), LCI699 or CIN-107, calculated to deliver 3 mg/kg/day) infused via an implanted mini-osmotic pump for an additional 7 days.
Blood pressure measurement: For each protocol described in FIG. 13, 12 mice were used to record systolic, diastolic, mean arterial pressure heart rate and activity via radio-telemetry. Telemetry transmitters were implanted in the carotid artery at 12 weeks of age. After 2 weeks of recovery from surgery, baseline blood pressure was recorded for 7 consecutive days. Animals were then submitted to the treatment (compound of formula (A) HBr/LCI/CIN).
Quantification of the effects of compound of formula (A) HBr, LCI, CIN on the degree of RAAS activation: Blood was collected from all the treated mice to investigate the effects of the aldosterone synthase inhibitors on plasma aldosterone, Angiotensin II and indices of RAS activation via LC-MS/MS.

[2] = biological target: T2, aldosterone synthase (Homo sapiens, UniProt P19099); assay: Randomized, double-blinded, placebo-controlled SAD and MAD study (overall findings)
T2 construct: from tissue; host or cells: living human subjects (endogenous adrenal enzyme)
T2 sequence (P19099 25-503): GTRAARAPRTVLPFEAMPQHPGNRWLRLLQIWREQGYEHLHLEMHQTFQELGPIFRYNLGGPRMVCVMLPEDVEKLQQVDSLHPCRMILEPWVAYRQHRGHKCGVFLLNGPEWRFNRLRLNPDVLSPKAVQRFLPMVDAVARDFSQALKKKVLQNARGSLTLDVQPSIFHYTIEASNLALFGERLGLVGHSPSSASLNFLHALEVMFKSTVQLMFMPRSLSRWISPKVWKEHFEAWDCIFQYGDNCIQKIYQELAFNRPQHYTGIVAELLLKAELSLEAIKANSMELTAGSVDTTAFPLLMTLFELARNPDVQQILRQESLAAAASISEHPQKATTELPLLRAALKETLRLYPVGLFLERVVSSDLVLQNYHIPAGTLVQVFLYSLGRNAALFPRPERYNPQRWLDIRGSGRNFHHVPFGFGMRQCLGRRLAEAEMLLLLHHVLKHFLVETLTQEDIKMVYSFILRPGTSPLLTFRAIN
Description: Aldosterone is produced by an aldosterone synthase, encoded by the gene CYP11B2. Aldosterone synthase catalyzes the final 3 steps in aldosterone synthesis, sequentially (1) from 11-deoxycorticosterone (11-DOC) to corticosterone, (2) from corticosterone to 18-OH-corticosterone, and (3) from 18-OH-corticosterone to aldosterone. […] 11β-hydroxylase catalyzes the conversion of 11-deoxycortisol to cortisol, and 11-deoxycorticosterone (11-DOC) to corticosterone.
Because 11-DOC is a substrate for both CYP11B1 and CYP11B2, use of a selective aldosterone synthase inhibitor which preserves the activity of CYP11B1 is important for preventing accumulation of the precursor 11-DOC.
(§1) Single Ascending Dose (SAD) and Multiple Ascending Dose (MAD) Study
(§2) A randomized, double-blinded, placebo-controlled study was conducted in which 116 patients were randomized and 87 received the compound of Formula A in the form of an HBr salt.

[3] = biological target: T2, aldosterone synthase; assay: Single ascending dose (SAD) study
Procedure: as §1, §2
Exposure above about 3-4 times the inhibition constant (Ki) was associated with duration of aldosterone suppression (FIG. 4).

[4] = biological target: T2, aldosterone synthase; assay: Multiple ascending dose (MAD) study
Procedure: as §1, §2

CCC(=O)N[C@@H]1CCCc2c(-c3ccc4c(c3)CCC(=O)N4C)cncc21 [CIN-107]
mean arterial blood pressure (MAP) [1]: reduced MAP to a similar degree and to a value comparable to that seen in control mice

CC(=O)N[C@H]1CC[C@H](NC(=O)CN2CCN(c3nncc(-c4ccc(C)cc4)n3)CC2)CC1 [Compound A HBr, N-[trans-4-(acetylamino)cyclohexyl]-2-{4-[5-(4-methylphenyl)-1,2,4-triazin-3-yl]piperazin-1-yl}acetamide monohydrobromide]
clinical laboratory, vital signs, ECGs or physical examination ([2]; SAD/MAD study): No clinically significant findings | deaths or serious adverse events (SAEs) ([2]; SAD/MAD study): No deaths or serious adverse events (SAEs) occurred | effect on cortisol levels ([2]; SAD/MAD study): no effect on cortisol levels | hyperkalemia ([2]; SAD/MAD study): No hyperkalemia was noted | plasma aldosterone ([2]; SAD/MAD study, 87 received the compound): rapid and durable reduction/suppression of plasma aldosterone | adverse events (AEs) ([2]; compound groups vs placebo groups): comparable between the groups receiving the compound and placebo groups | serum cortisol ([3]; FIG. 2 (AUC-24)): no evidence of dose-dependent reduction in serum cortisol | exposure associated with duration of aldosterone suppression ([3]; FIG. 4 (Cpu/Ki)): 3-4 times the inhibition constant (Ki) | duration of maximum aldosterone suppression ([3]; FIG. 5): dose-dependent increase | reduction of serum aldosterone ([3]; dose of 50 mg, FIG. 1 (AUC-24)): 50% | 11-DOC level ([4]; 360 mg dose level, FIG. 7): Accumulation of 11-DOC | serum aldosterone during the washout phase ([4]; 360 mg dose, FIG. 6): overshoot in serum aldosterone | Plasma Renin Activity (PRA) ([4]; FIG. 9): dose-dependent increase | dose giving 50% of maximum increase in Plasma Renin Activity (PRA) ([4]; FIG. 9): 40 mg | benefits on renal tubular sodium excretion ([4]; FIG. 12): seen at lower doses than are required for stimulation of renin and accumulation of 11-DOC | serum K+ ([4]; all doses tested, FIG. 10): physiological, non-adverse, increase in K^+ | adrenocorticotropic hormone (ACTH)-stimulated aldosterone secretion ([4]; all doses tested, FIG. 11): suppression of adrenocorticotropic hormone (ACTH)-stimulated aldosterone secretion | dose-effect on duration of maximum aldosterone suppression ([4]; day 7, FIG. 8): consistent with the SAD study | drug accumulation ([4]; multiple dosing): little drug accumulation | mean arterial blood pressure (MAP) [1]: reduced MAP to a similar degree and to a value comparable to that seen in control mice

N#Cc1ccc([C@H]2CCc3cncn32)c(F)c1 [LCI699]
mean arterial blood pressure (MAP) [1]: reduced MAP to a similar degree and to a value comparable to that seen in control mice

CC(=O)N[C@H]1CC[C@H](NC(=O)CN2CCN(c3nncc(-c4ccc(C)cc4)n3)CC2)CC1 [compound of Formula (A), N-[trans-4-(acetylamino)cyclohexyl]-2-{4-[5-(4-methylphenyl)-1,2,4-triazin-3-yl]piperazin-1-yl}acetamide]
dose range of aldosterone suppression without increase in 11-DOC or change in cortisol production (selectivity) ([2]; in vivo): wide does range at which aldosterone is suppressed without an increase in 11-DOC or change in cortisol production
